Conditions in all cases: Actinomycin D 25 microg/ml
Test [1] has as its system K-ras reporter (K2 cells). In words: Luciferase signal half-life after Actinomycin D, K2 cells. Format: cell-based, human. The text has this:
75 micrograms of the pKRAS106 plasmid was linearized by a single restriction endonuclease cleavage within the vector backbone and electroporated into SW480 human colon carcinoma cells. Neomycin resistant clones were isolated and tested for luciferase activity. Clones testing positive for luciferase production were subjected to Southern blot analysis (see below). The best clone (producing the highest signal and carrying a single intact copy of the transfected DNA) was utilized for high throughput screening (designated clone K2).
(§1) When screening for inhibitors rather than inducers of transcription, the half-life of the reporter molecule becomes a crucial parameter in determining the minimal incubation time that would be necessary to allow enough decay of reporter molecules so that the inhibition of their synthesis became visible. […] This experiment measured the combined half-life of luciferase mRNA and of the luciferase protein and compares the rate of signal decay of the CMV reporter to three other well characterized genes; H-ras, K-ras and c-erbB2.
(§2) Cells derived from clones CM1 (CMV), K2 (K-ras), H21 (H-ras) and N2 (c-erbB2) were seeded into 96-well microtiter plates and incubated overnight. […] At the times indicated in FIG. 22, cells were washed with PBS and luciferase activity of Actinomycin-treated cells determined as described in Materials and Methods. […]

In test [2] the test system is neu (c-erbB2) reporter (N2 cells). In words: Luciferase signal half-life after Actinomycin D, N2 cells. The format is cell-based, human.
Text: 75 micrograms of the pNEU106 plasmid was linearized by a single restriction endonuclease cleavage within the vector backbone and electroporated into HTB30 human breast carcinoma cells. Neomycin resistant clones were isolated and tested for luciferase activity. Clones testing positive for luciferase production were subjected to Southern blot analysis (see below). The best clone (producing the highest signal and carrying a single intact copy of the transfected DNA) was utilized for high throughput screening (designated clone N2).
as §1, §2

The next test concerns CMV reporter (CM1 cells). As to the kind of experiment: Luciferase signal half-life after Actinomycin D, CM1 cells. Format: cell-based, human.
Text: Hep3B hepatocellular carcinoma cells were transfected by electroporation with 75 micrograms of pCM106 which had been linearized by a single ScaI cut within the vector backbone. Neomycin resistant colonies were isolated and tested for luciferase activity. Luciferase positive, neomycin resistant clones were subjected to Southern blot analysis (see below). The best clone, producing the most luciferase activity from a single, correctly integrated vector was selected for use as the CMV reporter cell line in the high throughput screen (this clone was designated CM1).
as §1, §2

Test [3] concerns H-ras reporter (H21 cells). In words: Luciferase signal half-life after Actinomycin D, H21 cells. The format is cell-based. On the procedure: When screening for inhibitors rather than inducers of transcription, the half-life of the reporter molecule becomes a crucial parameter in determining the minimal incubation time that would be necessary to allow enough decay of reporter molecules so that the inhibition of their synthesis became visible. The CMV reporter cell line was therefore tested for the time dependency of luciferase activity after treatment of the cells with Actinomycin D, an inhibitor of transcription. This experiment measured the combined half-life of luciferase mRNA and of the luciferase protein and compares the rate of signal decay of the CMV reporter to three other well characterized genes; H-ras, K-ras and c-erbB2.
Cells derived from clones CM1 (CMV), K2 (K-ras), H21 (H-ras) and N2 (c-erbB2) were seeded into 96-well microtiter plates and incubated overnight. At time 0, Actinomycin D (25 microg/ml) was added. At the times indicated in FIG. 22, cells were washed with PBS and luciferase activity of Actinomycin-treated cells determined as described in Materials and Methods. The signal from the treated cells was compared to the luciferase activity of untreated controls.

Molecules are shown by their SMILES. Starred links: 1 amine or outer side, 2 acyl side, 3 side chain; linkers in the order of their positions; H or OH if unused. Positions of bridges follow the written chain, without caps; N, C: chain ends. Non-standard residues stand in square brackets, D forms with d. Residues, ends and D or L forms follow the SMILES beside them. Chains are numbered I, II in the order given. Actinocin(9to1) = Cc1c2oc3c(C)ccc(C(=O)[*:1])c3nc-2c(C(=O)[*:2])c(N)c1=O; NMeV = CN[C@H](C(=O)O)C(C)C; Sar = CNCC(=O)O

With `Cc1c2oc3c(C)ccc(C(=O)N[C@@H]4C(=O)N[C@H](C(C)C)C(=O)N5CCC[C@H]5C(=O)N(C)CC(=O)N(C)[C@@H](C(C)C)C(=O)O[C@@H]4C)c3nc-2c(C(=O)N[C@@H]2C(=O)N[C@H](C(C)C)C(=O)N3CCC[C@H]3C(=O)N(C)CC(=O)N(C)[C@@H](C(C)C)C(=O)O[C@@H]2C)c(N)c1=O` [Actinomycin D] (I: T[dV]P[Sar][NMeV] / II: T[dV]P[Sar][NMeV]; ester I:1-I:C, II:1-II:C; linker I:N-II:N via Actinocin(9to1)), the “Signal Halflife” value was 6.5 h in test [1], 3 h in test [2], 6.5 h in the test on CMV reporter (CM1 cells) and 10 h in test [3].

(Values after patent US6203976A, “Methods of preparing compositions comprising chemicals capable of transcriptional modulation” (OSI Pharmaceuticals, Inc., priority 1994, dated 2001).)
